Assays:
Assay type in all cases: in vivo
[1] = system: lambsquarters (Chenopodium album, CHEAL); test: Post-emerge test, greenhouse herbicide activity screening; conditions: phytotoxicity rating 0-100 (0 no damage, 100 complete death), 14 days after application
Summary of the method: (§1)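 Herbicidal damage is scored 0 (none) to 100 (complete plant death) two weeks after a simulated field spray. Rates span 15–1000 g ai/ha, delivered in acetone at 187 l/ha. For post-emergence treatments, plants have 2–3 leaves and the spray carries 0.25% v/v non-ionic surfactant.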

[2] = system: velvetleaf (Abutilon theophrasti, ABUTH); test: as above; conditions: phytotoxicity rating 0-100 (0 no damage, 100 complete death), 14 days after application
Summary of the method: as §1

[3] = system: sicklepod (Cassia obtusifolia, CASOB); test: as above; conditions: phytotoxicity rating 0-100 (0 no damage, 100 complete death), 14 days after application
Summary of the method: as §1

[4] = system: redroot pigweed (Amaranthus retroflexus, AMARE); test: as above; conditions: phytotoxicity rating 0-100 (0 no damage, 100 complete death), 14 days after application
Summary of the method: as §1

[5] = system: ivyleaf morningglory (Ipomoea hederacea, IPOHE); test: as above; conditions: phytotoxicity rating 0-100 (0 no damage, 100 complete death), 14 days after application
Summary of the method: as §1

[6] = system: green foxtail (Setaria viridis, SETVI); test: as above; conditions: phytotoxicity rating 0-100 (0 no damage, 100 complete death), 14 days after application
Summary of the method: as §1

[7] = system: large crabgrass (Digitaria sanguinalis, DIGSA); test: as above; conditions: phytotoxicity rating 0-100 (0 no damage, 100 complete death), 14 days after application
Summary of the method: as §1

[8] = system: barnyardgrass (Echinochloa crus-galli, ECHCG); test: as above; conditions: phytotoxicity rating 0-100 (0 no damage, 100 complete death), 14 days after application
Summary of the method: as §1

[9] = system: johnsongrass (Sorghum halepense, SORHA); test: as above; conditions: phytotoxicity rating 0-100 (0 no damage, 100 complete death), 14 days after application
Summary of the method: as §1

[10] = system: lambsquarters (Chenopodium album, CHEAL); test: Pre-emerge test, greenhouse herbicide activity screening; conditions: pre-emerge, rated 14 days after application, 0 = no damage, 100 = complete death
Summary of the method: (§2)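 Rating: 0–100 visual injury, 14 DAA. Application: acetone, 187 l/ha, 15–1000 g ai/ha, flat-fan track sprayer with nozzle 40–45 cm above soil or canopy. Post-emerge runs used 0.25% v/v surfactant on 2–3 leaf plants.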

[11] = system: velvetleaf (Abutilon theophrasti, ABUTH); test: as above; conditions: pre-emerge, rated 14 days after application, 0 = no damage, 100 = complete death
Summary of the method: as §2

[12] = system: sicklepod (Cassia obtusifolia, CASOB); test: as above; conditions: pre-emerge, rated 14 days after application, 0 = no damage, 100 = complete death
Summary of the method: as §2

[13] = system: ivyleaf morningglory (Ipomoea hederacea, IPOHE); test: as above; conditions: pre-emerge, rated 14 days after application, 0 = no damage, 100 = complete death
Summary of the method: as §2

[14] = system: green foxtail (Setaria viridis, SETVI); test: as above; conditions: pre-emerge, rated 14 days after application, 0 = no damage, 100 = complete death
Summary of the method: as §2

[15] = system: large crabgrass (Digitaria sanguinalis, DIGSA); test: as above; conditions: pre-emerge, rated 14 days after application, 0 = no damage, 100 = complete death
Summary of the method: as §2

[16] = system: barnyardgrass (Echinochloa crus-galli, ECHCG); test: as above; conditions: pre-emerge, rated 14 days after application, 0 = no damage, 100 = complete death
Summary of the method: as §2

[17] = system: johnsongrass (Sorghum halepense, SORHA); test: as above; conditions: pre-emerge, rated 14 days after application, 0 = no damage, 100 = complete death
Summary of the method: as §2

[18] = system: redroot pigweed (Amaranthus retroflexus, AMARE); test: as above; conditions: pre-emerge, rated 14 days after application, 0 = no damage, 100 = complete death
Summary of the method: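 Sandy loam pots; pre-emerge: sown 1 d pre-spray, surface-watered after, then bottom-watered. Post-emerge: sown 8–21 d before, 2–3 leaf stage, + 0.25% v/v NIS, bottom-watered. Acetone, 187 l/ha track spray, 15–1000 g ai/ha. 0–100 injury score, day 14.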

[19] = system: field corn (Zea mays L., var. Dekalb 535, CORN); test: Pre-emerge test, crop safety; conditions: pre-emerge, rated 14 days after application, 0 = no damage, 100 = complete death
Summary of the method: (§3)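 Applied at 15–1000 g ai/ha from acetone in 187 l/ha spray volume. Post-emergence applications included 0.25% v/v non-ionic surfactant and reached plants sown 8–21 days before. Pre-emergence applications were incorporated by surface watering. Efficacy or crop damage was rated on a 0–100 scale after 14 days.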

[20] = system: upland rice (Oryza sp., var. Tebonnet, RICE); test: Pre-emerge test, crop safety; conditions: pre-emerge, rated 14 days after application, 0 = no damage, 100 = complete death
Summary of the method: as §3

[21] = system: field corn (Zea mays L., var. Dekalb 535, CORN); test: Post-emerge test, crop safety; conditions: phytotoxicity rating 0-100 (0 no damage, 100 complete death), 14 days after application
Summary of the method: (§4)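 Plants grown in 10 cm pots of sandy loam mix received acetone-dissolved compounds through a moving flat-fan nozzle. Doses ranged from 15 to 1000 g ai/ha. Pre-emerge pots were seeded one day earlier, post-emerge pots 8–21 days earlier. Fourteen days on, each pot was graded 0–100 for damage.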

[22] = system: upland rice (Oryza sp., var. Tebonnet, RICE); test: Post-emerge test, crop safety; conditions: phytotoxicity rating 0-100 (0 no damage, 100 complete death), 14 days after application
Summary of the method: as §4

C#CCOc1c(Cl)cc(F)c(-n2c(=O)cc(C(F)(F)F)n(C)c2=O)c1N [Compound 1-19]
Post-emerge Herbicidal Activity CHEAL ([1]; 63 g ai/ha): 30 | Post-emerge Herbicidal Activity CHEAL ([1]; 250 g ai/ha): 90 | Post-emerge Herbicidal Activity ABUTH ([2]; 63 g ai/ha): 100 | Post-emerge Herbicidal Activity ABUTH ([2]; 250 g ai/ha): 100 | Post-emerge Herbicidal Activity CASOB ([3]; 63 g ai/ha): 10 | Post-emerge Herbicidal Activity CASOB ([3]; 250 g ai/ha): 30 | Post-emerge Herbicidal Activity AMARE ([4]; 63 g ai/ha): 30 | Post-emerge Herbicidal Activity AMARE ([4]; 250 g ai/ha): 70 | Post-emerge Herbicidal Activity IPOHE ([5]; 63 g ai/ha): 30 | Post-emerge Herbicidal Activity IPOHE ([5]; 250 g ai/ha): 95 | Post-emerge Herbicidal Activity SETVI ([6]; 63 g ai/ha): 20 | Post-emerge Herbicidal Activity SETVI ([6]; 250 g ai/ha): 95 | Post-emerge Herbicidal Activity DIGSA ([7]; 63 g ai/ha): 0 | Post-emerge Herbicidal Activity DIGSA ([7]; 250 g ai/ha): 10 | Post-emerge Herbicidal Activity ECHCG ([8]; 63 g ai/ha): 0 | Post-emerge Herbicidal Activity ECHCG ([8]; 250 g ai/ha): 80 | Post-emerge Herbicidal Activity SORHA ([9]; 63 g ai/ha): 0 | Post-emerge Herbicidal Activity SORHA ([9]; 250 g ai/ha): 70 | Pre-emerge Herbicidal Activity CHEAL (phytotoxicity rating, scale 0-100) ([10]; 63 g ai/ha): 100 | Pre-emerge Herbicidal Activity CHEAL (phytotoxicity rating, scale 0-100) ([10]; 250 g ai/ha): 100 | Pre-emerge Herbicidal Activity ABUTH (phytotoxicity rating, scale 0-100) ([11]; 63 g ai/ha): 100 | Pre-emerge Herbicidal Activity ABUTH (phytotoxicity rating, scale 0-100) ([11]; 250 g ai/ha): 100 | Pre-emerge Herbicidal Activity CASOB (phytotoxicity rating, scale 0-100) ([12]; 63 g ai/ha): 90 | Pre-emerge Herbicidal Activity CASOB (phytotoxicity rating, scale 0-100) ([12]; 250 g ai/ha): 100 | Pre-emerge Herbicidal Activity IPOHE (phytotoxicity rating, scale 0-100) ([13]; 63 g ai/ha): 60 | Pre-emerge Herbicidal Activity IPOHE (phytotoxicity rating, scale 0-100) ([13]; 250 g ai/ha): 100 | Pre-emerge Herbicidal Activity SETVI (phytotoxicity rating, scale 0-100) ([14]; 63 g ai/ha): 100 | Pre-emerge Herbicidal Activity SETVI (phytotoxicity rating, scale 0-100) ([14]; 250 g ai/ha): 100 | Pre-emerge Herbicidal Activity DIGSA (phytotoxicity rating, scale 0-100) ([15]; 63 g ai/ha): 95 | Pre-emerge Herbicidal Activity DIGSA (phytotoxicity rating, scale 0-100) ([15]; 250 g ai/ha): 100 | Pre-emerge Herbicidal Activity ECHCG (phytotoxicity rating, scale 0-100) ([16]; 63 g ai/ha): 90 | Pre-emerge Herbicidal Activity ECHCG (phytotoxicity rating, scale 0-100) ([16]; 250 g ai/ha): 100 | Pre-emerge Herbicidal Activity SORHA (phytotoxicity rating, scale 0-100) ([17]; 63 g ai/ha): 90 | Pre-emerge Herbicidal Activity SORHA (phytotoxicity rating, scale 0-100) ([17]; 250 g ai/ha): 100 | Pre-emerge Herbicidal Activity AMARE (phytotoxicity rating, scale 0-100) ([18]; 63 g ai/ha): 95 | Pre-emerge Herbicidal Activity AMARE (phytotoxicity rating, scale 0-100) ([18]; 250 g ai/ha): 100 | Pre-emerge crop damage CORN (phytotoxicity rating, scale 0-100) ([19]; 63 g ai/ha): 50 | Pre-emerge crop damage CORN (phytotoxicity rating, scale 0-100) ([19]; 250 g ai/ha): 80 | Pre-emerge crop damage RICE (phytotoxicity rating, scale 0-100) ([20]; 63 g ai/ha): 80 | Pre-emerge crop damage RICE (phytotoxicity rating, scale 0-100) ([20]; 250 g ai/ha): 95 | Post-emerge Herbicidal Activity CORN (crop damage) ([21]; 63 g ai/ha): 5 | Post-emerge Herbicidal Activity CORN (crop damage) ([21]; 250 g ai/ha): 45 | Post-emerge Herbicidal Activity RICE (crop damage) ([22]; 63 g ai/ha): 25 | Post-emerge Herbicidal Activity RICE (crop damage) ([22]; 250 g ai/ha): 80

Reference: patent US6355799B1, “Substituted benzene compounds, process for their preparation, and herbicidal and defoliant compositions containing them” (ISK Americas Incorporated, priority 1997, dated 2002)
